Experimental data reported in the supplement of paper PMC10307832.

Tests used:
Test in all cases: relative viability (nuclei count vs DMSO), 5 days (fraction); higher = more cells survive
[1] = compound: O=c1ncccn1[C@@H]1O[C@H](CO)[C@@H](O)[C@H]1O [Zebularine] + CC(=O)Nc1cccc(-n2c(=O)n(C3CC3)c(=O)c3c(Nc4ccc(I)cc4F)n(C)c(=O)c(C)c32)c1 [Trametinib] (partner 0.02 µM)
Procedure, shortened: (§1)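 Cells from lung cancer lines were seeded into 1536-well plates and, one day later, dosed by pin tool. Treatments were either a single drug or a fixed dose of an anchor drug with five library-drug doses (not always all listed) in √10 steps. After 5 days, nuclei were stained in a one-step fixation (final 0.05% Triton X-100, 1% formaldehyde, 1 ug/ml Hoechst) and counted on 4× images, and relative viability is the treated-to-vehicle nuclei ratio, as the median of duplicate plates.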

[2] = compound: O=c1ncccn1[C@@H]1O[C@H](CO)[C@@H](O)[C@H]1O [Zebularine] + O=C(CCCCCCC(=O)Nc1ccccc1)NO [Vorinostat] (partner 1 µM)
Procedure, shortened: as §1

[3] = compound: CC(C)CCN1c2nc(Nc3cc(F)c(O)c(F)c3)ncc2N(C)C(=O)C1C [BI-D1870] + C[C@]1(O)C[C@@H](c2nc(-c3ccc4ccc(-c5ccccc5)nc4c3)c3c(N)nccn32)C1 [Linsitinib] (partner 1 µM)
Procedure, shortened: as §1

[4] = compound: CC(C)CCN1c2nc(Nc3cc(F)c(O)c(F)c3)ncc2N(C)C(=O)C1C [BI-D1870] + CS(=O)(=O)CCNCc1ccc(-c2ccc3ncnc(Nc4ccc(OCc5cccc(F)c5)c(Cl)c4)c3c2)o1 [Lapatinib] (partner 2 µM)
Procedure, shortened: as §1

## UMC-11
[1]; first compound 1 µM
  relative viability: 0.709
[1]; first compound 3.162 µM
  relative viability: 0.754
[1]; first compound 10 µM
  relative viability: 0.422
[1]; first compound 31.62 µM
  relative viability: 0.644
[1]; first compound 100 µM
  relative viability: 0.376
[2]; first compound 1 µM
  relative viability: 0.388
[2]; first compound 3.162 µM
  relative viability: 0.359
[2]; first compound 10 µM
  relative viability: 0.335
[2]; first compound 31.62 µM
  relative viability: 0.331
[2]; first compound 100 µM
  relative viability: 0.279
[3]; first compound 0.04 µM
  relative viability: 1.06
[3]; first compound 0.1265 µM
  relative viability: 0.924
[3]; first compound 0.4 µM
  relative viability: 0.972
[3]; first compound 1.265 µM
  relative viability: 1.06
[3]; first compound 4 µM
  relative viability: 0.693
[4]; first compound 0.04 µM
  relative viability: 1.12
[4]; first compound 0.1265 µM
  relative viability: 0.858
[4]; first compound 0.4 µM
  relative viability: 0.97
[4]; first compound 1.265 µM
  relative viability: 1.08
[4]; first compound 4 µM
  relative viability: 0.637
